ChEMBL document CHEMBL3861947 (Medchemcomm, 2016)
pIC50: −log10 of the molar value.

How the values were obtained:
Homo sapiens [1] = assay: Increase in hemoglobin levels in stage 5D chronic kidney disease patient at 200 to 700 mg administered for 28 days measured on day 29 relative to control; format: functional
Homo sapiens [2] = assay: Increase in hemoglobin levels in stage 3, 4, 5 chronic kidney disease patient at 200 to 700 mg administered for 28 days measured on day 29 relative to control; format: functional
Homo sapiens [3] = assay: Effect on hemoglobin levels in stage 3 and 4 chronic kidney disease patient at 200 to 700 mg administered for 28 days measured on day 29 (reference value: 9.91 g/dl); format: functional
Homo sapiens [4] = assay: Increase in hemoglobin levels in renal anemia patient at 40 to 120 mg administered for 4 weeks; format: functional
Homo sapiens [5] = assay: Increase in endogenous erythropoietin levels in human administered as single oral dose relative to control; format: functional
Egl nine homolog 1 = Egl nine homolog 1 (Homo sapiens, UniProt Q9GZT9); assay: biochemical
Chain of Egl nine homolog 1 (Q9GZT9 whole entry): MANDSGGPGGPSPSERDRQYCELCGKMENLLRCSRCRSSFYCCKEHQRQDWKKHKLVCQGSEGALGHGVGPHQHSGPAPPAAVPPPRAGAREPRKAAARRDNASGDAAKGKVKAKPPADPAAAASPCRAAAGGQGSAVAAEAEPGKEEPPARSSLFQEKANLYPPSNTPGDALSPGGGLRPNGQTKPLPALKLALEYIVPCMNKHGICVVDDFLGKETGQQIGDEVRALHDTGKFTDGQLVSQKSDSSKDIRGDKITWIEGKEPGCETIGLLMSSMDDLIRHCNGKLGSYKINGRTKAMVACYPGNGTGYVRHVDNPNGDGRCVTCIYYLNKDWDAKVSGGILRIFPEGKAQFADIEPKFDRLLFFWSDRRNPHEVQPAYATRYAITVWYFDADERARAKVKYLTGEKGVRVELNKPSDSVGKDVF

Prolyl hydroxylase EGLN3 = Prolyl hydroxylase EGLN3 (Homo sapiens, UniProt Q9H6Z9); assay: Inhibition of recombinant human HIF-PHD3 expressed in insect Sf9 cells using biotinyl-DLDLEMLAPYIPMDDDFQL as substrate after 60 mins by DELFIA
Chain of Prolyl hydroxylase EGLN3 (Q9H6Z9 whole entry): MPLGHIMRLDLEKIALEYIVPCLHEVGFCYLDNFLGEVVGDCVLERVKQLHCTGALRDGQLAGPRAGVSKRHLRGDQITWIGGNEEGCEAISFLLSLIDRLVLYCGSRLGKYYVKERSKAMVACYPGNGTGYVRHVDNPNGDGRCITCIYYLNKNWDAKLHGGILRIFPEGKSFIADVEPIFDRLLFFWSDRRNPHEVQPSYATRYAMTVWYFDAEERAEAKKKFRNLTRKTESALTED

Prolyl hydroxylase EGLN2 = Prolyl hydroxylase EGLN2 (Homo sapiens, UniProt Q96KS0); assay: Inhibition of recombinant human HIF-PHD1 expressed in insect Sf9 cells using biotinyl-DLDLEMLAPYIPMDDDFQL as substrate after 60 mins by DELFIA
Chain of Prolyl hydroxylase EGLN2 (Q96KS0 whole entry): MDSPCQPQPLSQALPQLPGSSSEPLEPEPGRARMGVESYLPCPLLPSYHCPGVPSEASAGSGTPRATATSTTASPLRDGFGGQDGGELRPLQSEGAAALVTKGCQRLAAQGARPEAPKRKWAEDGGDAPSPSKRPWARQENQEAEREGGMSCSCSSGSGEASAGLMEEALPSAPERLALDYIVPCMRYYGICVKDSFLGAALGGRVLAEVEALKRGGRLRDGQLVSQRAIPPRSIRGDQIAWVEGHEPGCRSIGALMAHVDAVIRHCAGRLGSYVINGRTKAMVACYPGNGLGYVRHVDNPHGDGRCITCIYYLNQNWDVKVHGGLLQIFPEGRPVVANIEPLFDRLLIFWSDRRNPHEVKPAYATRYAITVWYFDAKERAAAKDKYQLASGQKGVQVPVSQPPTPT

Structure (SMILES): O=C(O)CNC(=O)C1C(=O)N(C2CCCCC2)C(=O)N(C2CCCCC2)C1=O [DAPRODUSTAT]
- Activity (Homo sapiens [1]): 71 - 89%
- Activity (Homo sapiens [2]): 63 - 91%

Structure (SMILES): O=C(O)CNC(=O)c1ncc(-c2cccc(Cl)c2)cc1O
- Activity (Homo sapiens [3]): 10.54 g/dL

Structure (SMILES): Cc1nc(C(=O)NCC(=O)O)c(O)c2ccc(Oc3ccccc3)cc12 [ROXADUSTAT]
- Activity (Homo sapiens [4]): >=1 g/dl
- fold change (FC) (Homo sapiens [5]): <=8

Structure (SMILES): Oc1c(-n2ccnn2)cnn1-c1cc(N2CCOCC2)ncn1 [MOLIDUSTAT SODIUM]
- pIC50 (Egl nine homolog 1): 6.55
- pIC50 (Prolyl hydroxylase EGLN3): 6.35
- pIC50 (Prolyl hydroxylase EGLN2): 6.32
